From patent US6864253B2, “Benzo[4,5]thieno[2,3-c]pyridine and Benzo[4,5]furo[2,3-c]pyridine Derivatives Useful as Inhibitors of Phosphodiesterase” (Orth-McNeil Pharmaceutical, Inc., priority 2000, dated 2005) come the findings set out here.

As usually defined, the IC50 is the point on the concentration scale where inhibition reaches its midpoint.

The target in one experiment is T1, PDEV (Homo sapiens, UniProt O76074).
T1 construct: rabbit or human tissues were homogenized in an ice-cold buffer solution; from tissue; host or cells: human tissue
Description: Cyclic nucleotide phosphodiesterase (PDE) assay, inhibition of PDEV isolated from human tissue. It is filed as biochemical. The note with it: 10 μM test compound; footnote a: tested using human tissue. The protocol: PDEV was isolated from rabbit and human tissues according to the protocol described by Boolell et al. (Boolell, M., Allen, M. J., Ballard, S. A., Ge[o-Attee, S., Muirhead, G. J., Naylor, A. M., Osterloh, I. H., and Gingell, C) in International Journal of Impotence Research 1996 8, 47-52 with minor modifications.
Briefly, rabbit or human tissues were homogenized in an ice-cold buffer solution containing 20 mM HEPES (pH 7.2), 0.25M sucrose, 1 mM EDTA, and 1 mM phenylmethylsulphonyl fluoride (PMSF). The homogenates were centrifuged at 100,000 g for 60 minutes at 4° C. The supernatant was filtered through […] filter and loaded on a Pharmacia Mono Q anion exchange column (1 ml bed volume) that was equilibrated with 20 mM HEPES, 1 mM EDTA and 0.5 mM PMSF. After washing out unbound proteins, the enzymes were eluted with a linear gradient of 100-600 mM NaCl in the same buffer (35 to 50 ml total, depending on the tissue. Enzymes from the skeletal muscle, corpus cavernosum, retina, heart and platelet were eluted with 35, 40, 45, 50, and 50 ml respectively.) The column was run at a flow rate of 1 ml/min and 1 ml fractions were collected. The fractions comprising various PDE activities were pooled separately and used in later studies.
The PDE assay was carried out as described by Thompson and Appleman in Biochemistry 1971 10, 311-316 with minor modifications, as noted below.
(§1) The assays were adapted to a 96-well format. The enzyme was assayed in 5 mM MgCl2, 15 mM Tris HCl (pH 7.4), 0.5 mg/ml bovine serum albumin, 1 μM cGMP or cAMP, 0.1 μCi [^3H]-cGMP or [^3H]-cAMP, and 2-10 μl of column elution. The total volume of the assay was 100 μl. The reaction mixture was incubated at 30° C. for 30 minutes. The reaction was stopped by boiling for 1 minute and then cooled down on ice. The resulting [^3H] 5′-mononucleotides were further converted to uncharged [^3H]-nucleosides by adding 25 μl 1 mg/ml snake venom (Ophiophagus hannah) and incubating at 30° C. for 10 minute. The reaction was stopped by the addition of 1 ml Bio-Rad AG1-X2 resin slurry (1:3). All the charged nucleotides were bound by the resin and only the uncharged [^3H]-nucleosides remained in the supernatant after centrifuging. An aliquot of 200 μl was taken and counted by liquid scintillation. PDE activity was expressed as pmol cyclic nucleotide hydrolyzed/min/ml of enzyme preparation.
Inhibitor studies were carried out in assay buffer with a final concentration of 10% DMSO. Under these conditions, the hydrolysis of product increased with time and enzyme concentration in a linear fashion.
On to `c1ccc2[nH]c(N3CCc4c([nH]c5ccccc45)C3c3ccc4c(c3)OCO4)nc2c1` (stereo not shown) [Cmpd 172], for which the “% INH @ 10 μM” value is 44^a %.

Staying with this experiment, now noted: PDEV; footnote a: tested using human tissue.
For `COc1ccc(-c2cnc(N3CCc4c([nH]c5ccccc45)C3c3ccc4c(c3)OCCO4)nc2)cc1` (stereo not shown) [Cmpd 184], it took 640 nM to reach half-maximal inhibition (IC50).

The compound `COc1ccc(-c2cnc(N3CC(=O)c4c([nH]c5ccccc45)C3c3ccc4c(c3)OCO4)nc2)cc1` (stereo not shown) [Cmpd 162] had an IC50 of 24 nM.

`COc1ccc(-c2cnc(N3CC(=O)c4c([nH]c5ccccc45)C3c3ccc4c(c3)OCO4)nc2)cc1OC` (stereo not shown) [Cmpd 157] displayed an IC50 of 8.7 nM.

Turning to `COc1ccc(-c2cnc(N3CCc4c([nH]c5ccccc45)C3c3ccc4c(c3)CCO4)nc2)cc1` (stereo not shown) [Cmpd 174], half-maximal inhibition (IC50) required 150 nM.

For `c1cnc(N2CCc3c([nH]c4ccccc34)C2c2ccc3c(c2)OCO3)nc1` (stereo not shown) [Cmpd 168], the IC50 was determined as 2150 nM.

`c1ccc(-c2cnc(N3CCc4c([nH]c5ccccc45)C3c3ccc4c(c3)OCO4)nc2)nc1` (stereo not shown) [Cmpd 183] gave an IC50 of 122 nM.

A further experiment addresses PDEV (Oryctolagus cuniculus, UniProt G1SX67). The experiment can be described thus: Cyclic nucleotide phosphodiesterase (PDE) assay, inhibition of PDEV isolated from rabbit tissue. It is filed as biochemical. Particulars: 10 μM test compound; rabbit PDEV. The protocol: Briefly, rabbit or human tissues were homogenized in an ice-cold buffer solution containing 20 mM HEPES (pH 7.2), 0.25M sucrose, 1 mM EDTA, and 1 mM phenylmethylsulphonyl fluoride (PMSF). The homogenates were centrifuged at 100,000 g for 60 minutes at 4° C. The supernatant was filtered through […] filter and loaded on a Pharmacia Mono Q anion exchange column (1 ml bed volume) that was equilibrated with 20 mM HEPES, 1 mM EDTA and 0.5 mM PMSF. […] The fractions comprising various PDE activities were pooled separately and used in later studies.
as §1
Inhibitor studies were carried out in assay buffer with a final concentration of 10% DMSO.
`O=C(c1ccc(-c2cccc(C(F)(F)F)c2)o1)N1CCc2c(n(CCN3CCOCC3)c3ccccc23)C1c1ccc2c(c1)OCO2` (stereo not shown) [Cmpd 28]: the “% Inh @ 10 μM (rabbit)” value worked out at 94%.

With `COc1ccc(-c2cnc(N3CCc4c([nH]c5ccccc45)C3c3ccc4c(c3)OCO4)nc2)cc1` (stereo not shown) [Cmpd 9], the “% Inh @ 10 μM (rabbit)” value came to 80%.

In the case of `O=C(c1ccc(-c2cccc(C(F)(F)F)c2)o1)N1CCc2c([nH]c3ccccc23)C1c1ccc([N+](=O)[O-])cc1` (stereo not shown) [Cmpd 84], the “% Inh @ 10 μM (rabbit)” value amounted to 20%.

For `O=C(c1ccc(-c2cccc([N+](=O)[O-])c2)o1)N1CCc2c([nH]c3ccccc23)C1c1ccc([N+](=O)[O-])cc1` (stereo not shown) [Cmpd 85], the “% Inh @ 10 μM (rabbit)” value came out at 26%.

Take `COc1ccc(C2c3[nH]c4ccccc4c3CCN2C(=O)c2cc(C(C)(C)C)nn2Cc2ccccc2)cc1OC` (stereo not shown) [Cmpd 134]: the “% Inh @ 10 μM (rabbit)” value was 5%.

Take `COc1ccc(C2c3[nH]c4ccccc4c3CCN2C(=O)c2cnn(-c3ccccc3)c2C(F)(F)F)cc1` (stereo not shown) [Cmpd 130]: the “% Inh @ 10 μM (rabbit)” value turned out to be 45%.

Regarding `CN(C)CCn1c2c(c3ccccc31)CCN(C(=O)c1ccc(-c3ccc([N+](=O)[O-])cc3)o1)C2c1ccc2c(c1)OCO2` (stereo not shown) [Cmpd 37], the “% Inh @ 10 μM (rabbit)” value is 95%.

Turning to `O=S(=O)(c1ccccc1)c1ccsc1S(=O)(=O)N1CCc2c([nH]c3ccccc23)C1c1ccc2c(c1)OCO2` (stereo not shown) [Cmpd 146], the “% Inh @ 10 μM (rabbit)” value is 35%.

Turning to `CC(=O)Nc1cccc(-c2ccc(C(=O)N3CCc4c([nH]c5ccccc45)C3c3ccc4c(c3)OCO4)o2)c1` (stereo not shown) [Cmpd 55], the “% Inh @ 10 μM (rabbit)” value came out at 70%.

As for `CN(C)CCn1c2c(c3ccccc31)CCN(C(=O)c1ccc(-c3ccccc3[N+](=O)[O-])o1)C2c1ccc2c(c1)OCO2` (stereo not shown) [Cmpd 41], the “% Inh @ 10 μM (rabbit)” value turned out to be 93%.

Regarding `O=C(c1cc2ccccc2s1)N1CCc2c([nH]c3ccccc23)C1c1ccc2c(c1)OCO2` (stereo not shown) [Cmpd 18], the “% Inh @ 10 μM (rabbit)” value was found to be 87%.

For `Cc1onc(-c2ccccc2)c1C(=O)N1CCc2c([nH]c3ccccc23)C1c1ccc2c(c1)OCO2` (racemic) [Cmpd 112], the “% Inh @ 10 μM (rabbit)” value is on record as 33%.

For `CC(C)(C)c1cc(C(=O)N2CCc3c([nH]c4ccccc34)C2c2ccc([N+](=O)[O-])cc2)n(Cc2ccccc2)n1` (stereo not shown) [Cmpd 142], the “% Inh @ 10 μM (rabbit)” value is reported as −5%.

Consider `COC(=O)CCn1c2c(c3ccccc31)CCN(C(=O)c1ccc(-c3cccc(C(F)(F)F)c3)o1)C2c1ccc2c(c1)OCO2` (stereo not shown) [Cmpd 23], for which the “% Inh @ 10 μM (rabbit)” value is given as 30%.

With `CN(C)c1ccc(C2c3[nH]c4ccccc4c3CCN2C(=O)c2ccc(-c3cccc(C(F)(F)F)c3)o2)cc1` (stereo not shown) [Cmpd 82], the “% Inh @ 10 μM (rabbit)” value stood at 13%.

As for `O=C(c1ccc(-c2cccc([N+](=O)[O-])c2)o1)N1CCc2c(sc3ccccc23)C1c1ccc2c(c1)OCO2` (stereo not shown) [Cmpd 76], the “% Inh @ 10 μM (rabbit)” value is 27%.

As to `Cc1onc(-c2ccccc2)c1C(=O)N1CCc2c([nH]c3ccccc23)C1c1ccc(C#N)cc1` (racemic) [Cmpd 115], the “% Inh @ 10 μM (rabbit)” value was determined as 30%.

On to `CN(C)CCn1c2c(c3ccccc31)CCN(c1nc3ccccc3s1)C2c1ccc2c(c1)OCO2` (stereo not shown) [Cmpd 2], for which the “% Inh @ 10 μM (rabbit)” value is given as 43%.

Regarding `O=C(c1ccc(-c2ccc(Cl)cc2)s1)N1CCc2c([nH]c3ccccc23)C1c1ccc2c(c1)OCO2` (stereo not shown) [Cmpd 91], the “% Inh @ 10 μM (rabbit)” value was determined as 82%.

As to `Cc1cc(C)cc(C2c3[nH]c4ccccc4c3CCN2C(=O)c2cc(C(C)(C)C)nn2Cc2ccccc2)c1` (stereo not shown) [Cmpd 137], the “% Inh @ 10 μM (rabbit)” value is −3%.

In the case of `CN(C)CCn1c2c(c3ccccc31)CCN(C(=O)c1ccc(-c3ccc(Cl)cc3[N+](=O)[O-])o1)C2c1ccc2c(c1)OCO2` (stereo not shown) [Cmpd 40], the “% Inh @ 10 μM (rabbit)” value came to 78%.

Take `COC(=O)Cn1c2c(c3ccccc31)CCN(C(=O)c1ccc(-c3cccc([N+](=O)[O-])c3)o1)C2c1ccc2c(c1)OCO2` (stereo not shown) [Cmpd 24]: the “% Inh @ 10 μM (rabbit)” value amounted to 40%.

Consider `CN(C)CCn1c2c(c3ccccc31)CCN(C(=O)c1ccc(C(C)(C)C)o1)C2c1ccc2c(c1)OCO2` (stereo not shown) [Cmpd 36], for which the “% Inh @ 10 μM (rabbit)” value was 97%.

Consider `COC(=O)C1Cc2c([nH]c3ccccc23)C(c2ccc3c(c2)OCO3)N1C(=O)c1ccc(-c2cccc([N+](=O)[O-])c2)o1` (stereo not shown) [Cmpd 73], for which the “% Inh @ 10 μM (rabbit)” value is 20%.

Consider `O=C(c1ccc(-c2cccc([N+](=O)[O-])c2)o1)N1CCc2c([nH]c3ccccc23)C1c1ccc2c(c1)OC(F)(F)O2` (stereo not shown) [Cmpd 21], for which the “% Inh @ 10 μM (rabbit)” value is 32%.

`O=C(O)Cn1c2c(c3ccccc31)CCN(C(=O)c1ccc(-c3cccc([N+](=O)[O-])c3)o1)C2c1ccc2c(c1)OCO2` (stereo not shown) [Cmpd 30]: the “% Inh @ 10 μM (rabbit)” value was 93%.

As for `O=C(c1cc2ccccc2o1)N1CCc2c([nH]c3ccccc23)C1c1ccc2c(c1)OCO2` (stereo not shown) [Cmpd 16], the “% Inh @ 10 μM (rabbit)” value was 88%.

For `O=C(c1ccc(-c2cccc(C(F)(F)F)c2)o1)N1CCc2c([nH]c3ccccc23)C1c1ccc2c(c1)OC(F)(F)O2` (stereo not shown) [Cmpd 22], the “% Inh @ 10 μM (rabbit)” value is recorded as 16%.

In the case of `COc1ccc(C2c3[nH]c4ccccc4c3CCN2C(=O)c2c(-c3ccccc3)noc2C)cc1OC` (racemic) [Cmpd 110], the “% Inh @ 10 μM (rabbit)” value worked out at 32%.

As to `O=C(O)C1Cc2c([nH]c3ccccc23)C(c2ccc3c(c2)OCO3)N1C(=O)c1ccc(-c2cccc(C(F)(F)F)c2)o1` (stereo not shown) [Cmpd 70], the “% Inh @ 10 μM (rabbit)” value is reported as 46%.

For `O=C(c1ccc(C(F)(F)F)o1)N1CCc2c([nH]c3ccccc23)C1c1ccc2c(c1)OCO2` (stereo not shown) [Cmpd 62], the “% Inh @ 10 μM (rabbit)” value is 86%.

For the compound `CN(C)CCCn1c2c(c3ccccc31)CCN(C(=O)c1ccc(-c3cccc(C(F)(F)F)c3)o1)C2c1ccc2c(c1)OCO2` (stereo not shown) [Cmpd 44], the “% Inh @ 10 μM (rabbit)” value worked out at 65%.

On to `CS(=O)(=O)c1ccc(-c2cnc(N3CCc4c([nH]c5ccccc45)C3c3ccc4c(c3)OCO4)nc2)c([N+](=O)[O-])c1` (stereo not shown) [Cmpd 8], for which the “% Inh @ 10 μM (rabbit)” value was 89%.

For `CN(C)CCn1c2c(c3ccccc31)CCN(C(=O)c1ccc(-c3cc(C(F)(F)F)ccc3Cl)o1)C2c1ccc2c(c1)OCO2` (stereo not shown) [Cmpd 43], the “% Inh @ 10 μM (rabbit)” value is on record as 22%.

Staying with this experiment, now noted: 10 μM test compound; rabbit PDEV; read-out: % INH @ 10 μM (rabbit).
`c1ccc2oc(N3CCc4c([nH]c5ccccc45)C3c3ccc4c(c3)OCO4)nc2c1` (stereo not shown) [Cmpd 151]: the inhibition at 10 µM was 95%.

On to `CS(=O)(=O)c1ccc(-c2cnc(N3CCc4c(n(CCN5CCCC5)c5ccccc45)C3c3ccc4c(c3)OCO4)nc2)c([N+](=O)[O-])c1` (stereo not shown) [Cmpd 154], for which the inhibition at 10 µM was 97%.
